Experimental findings from patent USRE39071E1, “Anhydro-and isomer-a-21978c cyclic peptides” (Eli Lilly and Company, priority 1987, dated 2006) are described below.

Values after ≈ are worked out from the molar mass of the structure shown. A value given as a limit tells only on which side of the number the result lay.

The subject of experiment [1] is Haemophilus influenzae 76 (ampicillin-resistant strain). Briefly: Agar-dilution MIC. Format: cell-based. Also on record: unit not given beside the values. The source says: (§1) Table I summarizes the minimal inhibitory concentrations (MIC's) at which the two illustrative compounds, anhydro-LY146032 and isomer-LY146032, inhibit certain organisms, as determined by standard agar-dilution assays.

Experiment [2] concerns Streptococcus faecalis X66. Format: cell-based.
Description: as §1

The subject of experiment [3] is Staphylacoccus epidermidis 222. It counts as cell-based.
Description: as §1

Experiment [4] relates to Staphylacoccus aureus X400 (methicillin-resistant strain). It counts as cell-based.
Description: as §1

Experiment [5] relates to Streptococcus faecalis 2041. It counts as cell-based.
Description: as §1

For experiment [6], the system named is Staphylacoccus aureus V41 (penicillin-resistant strain). It counts as cell-based.
Description: as §1

Experiment [7] relates to Staphylacoccus aureus XL1. Format: cell-based.
Description: as §1

For experiment [8], the system named is Streptococcus pyogenes C203. It counts as cell-based.
Description: as §1

In experiment [9] the test system is Haemophilus influenzae CL (ampicillin-sensitive strain). Briefly: Agar-dilution MIC. It counts as cell-based.
Description: as §1

A further experiment relates to Streptococcus pneumoniae. Briefly: Experimental infection in mice, subcutaneous ED50. Format: in vivo. Particulars: two doses. As to the method: (§2) The new derivatives of this invention have also shown in vivo antimicrobial activity against experimental bacterial infections. When two doses of test compound were administered to mice in experimental infections, the activity observed was measured as an ED50 value [effective dose in mg/kg to protect 50% of the test animals: see Warren Wick, et al., J. Bacteriol. 81, 233-235 (1961)].

The test system of another experiment is Streptococcus pyogenes. Nature of the experiment: Experimental infection in mice, subcutaneous ED50. Format: in vivo. Particulars: two doses. As to the method:
as §2

For the next experiment, the system named is Staphylococcus aueus. Nature of the experiment: Experimental infection in mice, subcutaneous ED50. It counts as in vivo. To be noted: two doses. The method, then:
as §2

As for `CCCCCCCCCC(=O)N[C@@H](Cc1c[nH]c2ccccc12)C(=O)N[C@@H](CC(N)=O)C(=O)N[C@@H](CC(=O)O)C(=O)N[C@@H]1C(=O)NCC(=O)N[C@@H](CCCN)C(=O)N[C@@H](CC(=O)O)C(=O)N[C@H](C)C(=O)N[C@H](C(=O)O)CC(=O)NCC(=O)N[C@H](CO)C(=O)N[C@@H]([C@H](C)CC(=O)O)C(=O)N[C@@H](CC(=O)c2ccccc2N)C(=O)O[C@@H]1C` [Isomer-LY146032], the MIC entry in [1] was “—^ (>128)”; in experiment [2], 128 µg/mL (≈ 79 µM); in [3] it was 8 µg/mL (≈ 4.94 µM); in [4] it was 8 µg/mL (≈ 4.94 µM); in experiment [5], 32 µg/mL (≈ 19.7 µM); in [6], 8 µg/mL (≈ 4.94 µM). Besides, the MIC in experiment [7] was 8 µg/mL (≈ 4.94 µM); in experiment [8], 2 µg/mL (≈ 1.23 µM); in experiment [9], “—^f (>128)”. Also, the figures for the “Subcutaneous ED50” value with Streptococcus pneumoniae, in the experiment with Streptococcus pyogenes and in the experiment on Staphylococcus aueus were 3.40 mg/kg, less than 1.25 mg/kg and 10.68 mg/kg, respectively.
As for `CCCCCCCCCC(=O)N[C@@H](Cc1c[nH]c2ccccc12)C(=O)N[C@@H](CC(N)=O)C(=O)N[C@@H](CC(=O)O)C(=O)N[C@@H]1C(=O)NCC(=O)N[C@@H](CCCN)C(=O)N[C@@H](CC(=O)O)C(=O)N[C@H](C)C(=O)N[C@H]2CC(=O)N(CC(=O)N[C@H](CO)C(=O)N[C@@H]([C@H](C)CC(=O)O)C(=O)N[C@@H](CC(=O)c3ccccc3N)C(=O)O[C@@H]1C)C2=O` [Anhydro-LY146032], the MIC entry in experiment [1] is “— (>128)”; in experiment [2] it was 64 µg/mL (≈ 39.9 µM); in [3] it was 4 µg/mL (≈ 2.5 µM); in experiment [4], 8 µg/mL (≈ 4.99 µM); in experiment [5], 16 µg/mL (≈ 9.98 µM); in experiment [6] it was 4 µg/mL (≈ 2.5 µM). The MIC in experiment [7] is 4 µg/mL (≈ 2.5 µM); in [8], 1 µg/mL (≈ 0.624 µM); in [9], “— (>128)”. In addition, the “Subcutaneous ED50” value in the experiment on Streptococcus pneumoniae came to 3.36 mg/kg; in the experiment on Streptococcus pyogenes, 1.15 mg/kg; in the experiment with Staphylococcus aueus it was 9.05 mg/kg.
